Here are results for two compounds from paper PMC11237774, “On-target, dual aminopeptidase inhibition provides cross-species antimalarial activity” (mBio, 2024).

Where two headings read alike, the source gives them in different places.

In experiment [1] the test system is PfNF54-s16-GFP late (IV–V) stage gametocytes. As to the kind of experiment: Image-based gametocyte viability assay. Format: cell-based, P. falciparum. The following applies: Plasmodium falciparum; stages IV–V, 72 h; read-out: IC50 Late-stage Gametocytes (mean ± SD). Here is the method:
(§1) Viability assays were performed as described previously ([32], [33]) against PfNF54-s16-GFP early(I–III), late (IV–V), and mature (V) stage gametocytes. Gametocytes were assessed at the appropriate time points following gametogenesis; early stage (day 2), late stage (day 8), and mature stage (day 12). Compounds diluted in 4% DMSO were transferred into 384-well imaging plates; gametocytes prepared as described previously (35) were added, and plates were incubated for 72 h in 5% CO2, 5% O2, and 60% humidity at 37°C. After 72 h incubation, 5 µL of MitoTracker Red CMH2XRos in phosphate buffered saline (PBS) was added per well, and plates were incubated overnight. Image acquisition and analysis were undertaken on the Opera QEHS micro-plate confocal imaging system. An Acapella-based script using the CMH2XRos fluorescent signal and the GFP-designated object quantifying viable stage-dependent parasite morphology identified gametocytes. Gametocyte viability was calculated as a percentage of the positive (5 µM puromycin) and negative (0.4% DMSO) controls. IC50 values were calculated using a 4-parameter log dose, non-linear regression analysis, with sigmoidal dose response (variable slope) curve fit using GraphPad Prism (ver 4.0). No constraints were used in the curve fit. […] Experiments were performed as two or three biological replicates in duplicate.

In experiment [2] the test system is PfNF54-s16-GFP mature (V) stage gametocytes. Put plainly: Image-based gametocyte viability assay. Type of experiment: cell-based, P. falciparum. The following applies: Plasmodium falciparum, 72 h, read-out: IC50 Mature-stage Gametocytes (mean ± SD). As to the method:
as §1

For experiment [3], the system named is PfNF54-s16-GFP early (I–III) stage gametocytes. As to the kind of experiment: Image-based gametocyte viability assay. Type of experiment: cell-based, P. falciparum. The note with it: Plasmodium falciparum; stages I–III, 72 h; read-out: IC50 Early-stage Gametocytes (mean ± SD). As to the method:
Viability assays were performed as described previously ([32], [33]) against PfNF54-s16-GFP early(I–III), late (IV–V), and mature (V) stage gametocytes. Gametocytes were assessed at the appropriate time points following gametogenesis; early stage (day 2), late stage (day 8), and mature stage (day 12). Compounds diluted in 4% DMSO were transferred into 384-well imaging plates; gametocytes prepared as described previously (35) were added, and plates were incubated for 72 h in 5% CO2, 5% O2, and 60% humidity at 37°C. After 72 h incubation, 5 µL of MitoTracker Red CMH2XRos in phosphate buffered saline (PBS) was added per well, and plates were incubated overnight. Image acquisition and analysis were undertaken on the Opera QEHS micro-plate confocal imaging system. An Acapella-based script using the CMH2XRos fluorescent signal and the GFP-designated object quantifying viable stage-dependent parasite morphology identified gametocytes. Gametocyte viability was calculated as a percentage of the positive (5 µM puromycin) and negative (0.4% DMSO) controls. IC50 values were calculated using a 4-parameter log dose, non-linear regression analysis, with sigmoidal dose response (variable slope) curve fit using GraphPad Prism (ver 4.0). No constraints were used in the curve fit. Chloroquine, artesunate, pyronaridine, pyrimethamine, dihydroartemisinin (DHA), and methylene blue were used as control compounds. Experiments were performed as two or three biological replicates in duplicate.

The target in another experiment is Pv-M1 (Plasmodium vivax, UniProt A5JZA9). As to the kind of experiment: Recombinant aminopeptidase fluorescence assay (H-Leu-NHMec). Type of experiment: biochemical, P. vivax. Here is the method:
(§2) Inhibition of aminopeptidase activity assays were performed against nine aminopeptidases: the M1 alanyl and M17 leucyl aminopeptidases from P. falciparum (PfA-M1; PfA-M17), P. vivax (Pv-M1; Pv-M17), and P. berghei (Pb-M1; Pb-M17), and three human M1 homologs: LTA4H (OriGene TP307617), ERAP1 (OriGene TP314469), and ERAP2 (Creative BioMart ERAP2-304H). The Plasmodium enzymes were produced recombinantly as described previously ([16], [17]), and the human recombinant enzymes were purchased from commercial suppliers as indicated.
(§3) The concentration of H-Leu-NHMec in the assay was held constant for each enzyme and ranged from 10 to 100 µM, depending on the enzyme. Reactions were measured at 37°C in white 384-well plates in a total volume of 25 or 50 µL using a spectrofluorimeter (BMG FLUOstar) with excitation at 355 nm and emission at 460 nm. The fluorescence signal was continuously monitored until a final steady-state velocity, v, was obtained. Inhibition constants were calculated from biological triplicates made from three different protein preparations.
(§4) Substrate concentrations were selected to allow sensitive detection of enzyme activity while not exceeding the Km for each enzyme. A compound concentration range was selected to obtain a complete inhibition curve (0%–100 %) in biological triplicate. Where possible, the Ki values were calculated by plotting the initial rates versus inhibitor concentration and fitting to the Morrison equation for tight-binding inhibitors in GraphPad Prism (V.8.4.1; non-linear regression method).

The subject of a further experiment is Pf3D7. Put plainly: 72 h ring killing assay (SYBR Green I). Type of experiment: cell-based, P. falciparum. The note with it: Plasmodium falciparum, Pf3D7 ring stage. As to the method: Viability assays were performed as previously described ([7]). Sorbitol-synchronized Pf3D7 (a laboratory strain which is broadly sensitive to standard antimalarial drugs) at ring stages was cultured in the presence of drug serially diluted across a 96-well plate at 0.5% parasitemia and 2% hematocrit. Cultures were grown for 72 h before being placed at −80°C. After thawing, cultures were incubated with equal volumes of lysis buffer (20 mM Tris [pH 7.5], 5 mM EDTA, 0.008% [wt/vol] saponin, and 0.008% [vol/vol] Triton x-100) containing 0.2 µL/mL SYBR Green I Nucleic Acid Gel Stain (10,000× in dimethyl sulfoxide [DMSO]; Thermo Fisher). After 1 h incubation, fluorescence intensity was read on a Glomax Explorer Fully Loaded (Promega) at emission wavelengths of 500–550 nm and an excitation wavelength of 475 nm. Graphs were generated using GraphPad Prism (V.8.4.1). Parasite survival was compared with vehicle-treated cultures in three biological replicates performed in triplicate. This EC50 was used in asexual P. falciparum assays unless otherwise stated.

Another experiment concerns the target T1, ERAP2 (Homo sapiens, UniProt Q6P179).
T1 construct: purchased Creative BioMart ERAP2-304H
As to the kind of experiment: Recombinant aminopeptidase fluorescence assay (H-Leu-NHMec). Format: biochemical. The following applies: for inhibition at 1.25 µM: ERAP2, 1.25 µM compound; for inhibition at 10 µM: ERAP2, 10 µM compound; for inhibition at 500 µM: ERAP2, 500 µM compound; for inhibition at 1000 µM: ERAP2, 1000 µM compound. As to the method:
as §2, §3, §4

The target of the next experiment is Pb-M1 (Plasmodium berghei, UniProt A0A509ATR4). Described as above. Type of experiment: biochemical. As to the method:
as §2, §3, §4

The target of a further experiment is T2, ERAP1 (Homo sapiens, UniProt Q9NZ08).
T2 construct: purchased OriGene TP314469
T2 sequence (Q9NZ08 whole entry): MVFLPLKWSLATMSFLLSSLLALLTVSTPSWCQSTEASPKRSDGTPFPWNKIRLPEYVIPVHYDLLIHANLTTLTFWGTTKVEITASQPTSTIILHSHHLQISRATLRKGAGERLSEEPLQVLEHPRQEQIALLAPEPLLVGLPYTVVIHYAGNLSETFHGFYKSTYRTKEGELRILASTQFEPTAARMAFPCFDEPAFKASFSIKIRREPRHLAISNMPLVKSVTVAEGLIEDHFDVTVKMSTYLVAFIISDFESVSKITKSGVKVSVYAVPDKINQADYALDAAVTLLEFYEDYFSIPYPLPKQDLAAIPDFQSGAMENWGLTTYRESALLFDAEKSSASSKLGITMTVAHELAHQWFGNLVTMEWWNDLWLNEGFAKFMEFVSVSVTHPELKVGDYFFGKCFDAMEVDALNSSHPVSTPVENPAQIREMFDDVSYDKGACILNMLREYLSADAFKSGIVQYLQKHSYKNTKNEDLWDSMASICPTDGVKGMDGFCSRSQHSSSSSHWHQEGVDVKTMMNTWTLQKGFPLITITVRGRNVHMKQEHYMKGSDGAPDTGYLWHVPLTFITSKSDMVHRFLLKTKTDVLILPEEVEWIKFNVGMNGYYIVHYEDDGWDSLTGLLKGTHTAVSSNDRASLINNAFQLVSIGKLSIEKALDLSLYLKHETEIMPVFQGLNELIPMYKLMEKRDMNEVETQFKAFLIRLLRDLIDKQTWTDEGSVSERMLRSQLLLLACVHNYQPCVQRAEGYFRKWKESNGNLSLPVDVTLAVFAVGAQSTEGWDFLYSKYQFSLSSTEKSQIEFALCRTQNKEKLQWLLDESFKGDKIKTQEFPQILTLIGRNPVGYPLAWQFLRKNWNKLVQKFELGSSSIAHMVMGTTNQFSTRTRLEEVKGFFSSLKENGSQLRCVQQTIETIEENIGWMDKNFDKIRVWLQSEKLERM
The description is as above. Format: biochemical. The note with it: for inhibition at 1.25 µM: ERAP1, 1.25 µM compound; for inhibition at 10 µM: ERAP1, 10 µM compound; for inhibition at 500 µM: ERAP1, 500 µM compound; for inhibition at 1000 µM: ERAP1, 1000 µM compound. As to the method:
as §2, §3, §4

Where [4] appears, read: read-out: Inhibition of aminopeptidase activity.

Pv-M1, sequence (A5JZA9 entry or part of it): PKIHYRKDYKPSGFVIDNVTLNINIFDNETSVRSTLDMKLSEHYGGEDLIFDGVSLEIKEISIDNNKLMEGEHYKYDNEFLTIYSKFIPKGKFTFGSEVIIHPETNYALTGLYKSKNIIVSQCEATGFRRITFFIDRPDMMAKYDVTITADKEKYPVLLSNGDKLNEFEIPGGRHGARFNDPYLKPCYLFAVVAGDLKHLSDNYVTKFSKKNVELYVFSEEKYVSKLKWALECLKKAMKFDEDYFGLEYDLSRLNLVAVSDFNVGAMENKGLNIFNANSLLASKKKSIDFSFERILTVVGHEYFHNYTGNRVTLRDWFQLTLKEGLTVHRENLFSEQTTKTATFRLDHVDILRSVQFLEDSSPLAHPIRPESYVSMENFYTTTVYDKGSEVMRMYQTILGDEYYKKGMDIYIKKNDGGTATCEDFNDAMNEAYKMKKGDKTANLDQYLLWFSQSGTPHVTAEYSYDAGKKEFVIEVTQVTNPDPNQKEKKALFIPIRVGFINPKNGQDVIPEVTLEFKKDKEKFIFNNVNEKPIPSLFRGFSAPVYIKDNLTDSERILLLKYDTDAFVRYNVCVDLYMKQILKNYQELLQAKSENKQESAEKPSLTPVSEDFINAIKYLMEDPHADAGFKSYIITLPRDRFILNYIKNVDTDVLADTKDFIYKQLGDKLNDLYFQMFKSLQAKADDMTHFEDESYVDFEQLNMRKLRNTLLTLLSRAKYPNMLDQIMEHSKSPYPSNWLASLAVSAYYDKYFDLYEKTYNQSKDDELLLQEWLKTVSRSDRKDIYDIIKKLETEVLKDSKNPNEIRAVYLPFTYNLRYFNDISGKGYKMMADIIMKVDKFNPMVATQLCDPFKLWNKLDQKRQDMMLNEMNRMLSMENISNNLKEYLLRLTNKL
T1 sequence (Q6P179 whole entry): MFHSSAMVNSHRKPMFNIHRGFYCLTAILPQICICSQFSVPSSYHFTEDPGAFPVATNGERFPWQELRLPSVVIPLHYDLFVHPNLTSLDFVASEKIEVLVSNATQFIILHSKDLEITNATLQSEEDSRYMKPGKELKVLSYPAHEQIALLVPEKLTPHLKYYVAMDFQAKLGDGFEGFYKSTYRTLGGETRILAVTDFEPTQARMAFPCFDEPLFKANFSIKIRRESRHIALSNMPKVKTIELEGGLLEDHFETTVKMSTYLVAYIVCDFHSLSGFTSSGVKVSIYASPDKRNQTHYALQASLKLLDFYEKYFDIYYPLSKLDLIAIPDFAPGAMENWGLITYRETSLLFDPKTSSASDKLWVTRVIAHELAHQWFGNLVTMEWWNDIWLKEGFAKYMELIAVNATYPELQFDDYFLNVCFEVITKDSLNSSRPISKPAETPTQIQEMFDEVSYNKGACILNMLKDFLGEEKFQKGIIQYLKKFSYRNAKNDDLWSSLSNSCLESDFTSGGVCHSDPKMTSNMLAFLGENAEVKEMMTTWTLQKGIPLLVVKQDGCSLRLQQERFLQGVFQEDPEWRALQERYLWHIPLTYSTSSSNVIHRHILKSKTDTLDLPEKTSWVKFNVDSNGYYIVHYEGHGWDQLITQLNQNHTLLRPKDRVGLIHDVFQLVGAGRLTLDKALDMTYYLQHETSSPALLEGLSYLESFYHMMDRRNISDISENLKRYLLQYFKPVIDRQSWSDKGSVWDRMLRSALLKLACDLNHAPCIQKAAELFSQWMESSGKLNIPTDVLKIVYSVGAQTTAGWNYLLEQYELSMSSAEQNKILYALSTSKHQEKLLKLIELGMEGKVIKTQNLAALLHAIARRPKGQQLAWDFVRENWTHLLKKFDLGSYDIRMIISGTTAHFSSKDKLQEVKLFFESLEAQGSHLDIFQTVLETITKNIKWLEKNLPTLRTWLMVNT
Pb-M1, sequence (A0A509ATR4 entry or part of it): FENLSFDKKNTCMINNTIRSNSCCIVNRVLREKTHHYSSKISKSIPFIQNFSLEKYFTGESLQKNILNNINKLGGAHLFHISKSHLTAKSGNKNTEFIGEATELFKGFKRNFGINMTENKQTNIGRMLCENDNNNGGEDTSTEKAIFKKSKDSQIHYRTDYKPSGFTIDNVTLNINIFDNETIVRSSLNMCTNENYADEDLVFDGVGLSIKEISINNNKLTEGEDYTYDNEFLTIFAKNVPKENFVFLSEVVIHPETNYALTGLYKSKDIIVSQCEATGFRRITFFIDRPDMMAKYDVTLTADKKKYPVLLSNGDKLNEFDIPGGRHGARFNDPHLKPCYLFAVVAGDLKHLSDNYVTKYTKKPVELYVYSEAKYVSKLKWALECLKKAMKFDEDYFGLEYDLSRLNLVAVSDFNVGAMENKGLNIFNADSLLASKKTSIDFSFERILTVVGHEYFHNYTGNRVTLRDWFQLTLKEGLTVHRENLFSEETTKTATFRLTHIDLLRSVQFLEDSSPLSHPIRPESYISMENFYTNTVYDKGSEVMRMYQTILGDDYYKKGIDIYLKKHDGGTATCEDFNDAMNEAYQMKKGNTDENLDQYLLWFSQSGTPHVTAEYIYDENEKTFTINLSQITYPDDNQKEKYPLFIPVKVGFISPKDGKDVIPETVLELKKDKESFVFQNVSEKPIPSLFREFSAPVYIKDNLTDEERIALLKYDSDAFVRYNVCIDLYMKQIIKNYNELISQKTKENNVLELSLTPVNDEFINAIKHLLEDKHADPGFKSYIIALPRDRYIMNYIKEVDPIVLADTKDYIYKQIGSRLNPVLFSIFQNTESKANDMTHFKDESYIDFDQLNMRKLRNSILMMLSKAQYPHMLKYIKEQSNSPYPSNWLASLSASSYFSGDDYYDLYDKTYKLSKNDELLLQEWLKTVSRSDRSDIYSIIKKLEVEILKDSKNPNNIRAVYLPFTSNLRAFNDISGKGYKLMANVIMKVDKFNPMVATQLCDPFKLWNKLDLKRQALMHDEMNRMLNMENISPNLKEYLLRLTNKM

Take `C[C@H]1[C@H](OC(=O)CCC(=O)O)O[C@@H]2O[C@@]3(C)CC[C@H]4[C@H](C)CC[C@@H]1[C@@]24OO3` [artesunate]: the IC50 in experiment [1] was found to be 26 ± 2 nM; in experiment [2], 51 ± 23 nM; in experiment [3], 16 ± 5 nM. For the same compound, the inhibition at 1.25 µM on Pv-M1 (setting [4]) came to 2.1%; at ERAP2, 0%; on Pb-M1 (setting [4]), 0%; at ERAP1, 0%. In addition, the inhibition at 10 µM at Pv-M1 (setting [4]) is 23.6%; at ERAP2, 0%; on Pb-M1 (Pb-M1, 10 µM compound, read-out: Inhibition of aminopeptidase activity) it was 12.8%; on ERAP1, 0%. The inhibition at 500 µM at Pv-M1 (setting [4]) was 74%; on ERAP2, 0%; on Pb-M1 (setting [4]) it was 81.3%; on ERAP1 it was 0%. Further, the inhibition at 1000 µM was determined as 68.2% at Pv-M1 (setting [4]), 0% on ERAP2, 78.2% on Pb-M1 (setting [4]) and 0% at ERAP1. The compound further returned an EC50 in the experiment with Pf3D7 of 4 nM.
Take `CC(C)(C)CC(=O)NC(C(=O)NO)c1ccc(-c2cc(F)c(F)c(F)c2)cc1` (centres unmarked) [MMV1557817, N-(2-(hydroxyamino)−2-oxo-1-(3′,4′,5′-trifluoro-[1,1′-biphenyl]-4-yl)ethyl)-3,3-dimethylbutanamide]: the IC50 in experiment [1] amounted to 309 nM; in experiment [2] it was 1470 nM; in experiment [3], 99 nM. For the same compound, the Ki on Pv-M1 worked out at 19 nM; on Pb-M1 it was 2 ± 0.2 nM. Further, the inhibition at 1.25 µM turned out to be 96% on Pv-M1 (setting [4]), 7% at ERAP2, 94% on Pb-M1 (setting [4]) and 0% at ERAP1. Moreover, the inhibition at 10 µM stood at 100% on Pv-M1 (setting [4]), 0% at ERAP2, 100% on Pb-M1 (setting [4]) and 0% at ERAP1. This compound showed an EC50 in the experiment on Pf3D7 of 39 nM. The inhibition at 500 µM at ERAP2 came to 99.1%; at ERAP1, 75%. For the same compound, the results for the inhibition at 1000 µM on ERAP2 and at ERAP1 were 100% and 98%, respectively.

One may read the IC50 as the point on the concentration scale where inhibition reaches its midpoint. In general, inhibition refers to the percentage by which the read-out fell short of the control. Usually EC50 stands for the concentration at which the effect is half-maximal. One may read the Ki as a dissociation constant, usually derived from enzyme kinetics or from competition with a known ligand.
